# “And” between values parts separate entries of the source, which are not always exact repeats. Equal entries are not always repeated.
# Key:
# [1] = organism: Felis catus; experiment: Ratio of Chronotropic (C) EC50 to inotropic (I) EC50
# [2] = tested on: Canis familiaris; experiment: Inotropic effect in dogs with pentobarbtial-induced heart failure, iv administration; format: functional; conditions: Canis lupus familiaris
# [3] = tested on: Canis familiaris; experiment: (§1) Reduced arterial blood pressure after Id administration in dogs with pentobarbital-induced heart failure; format: functional; conditions: Canis lupus familiaris
# [4] = organism: Felis catus; experiment: Chronotropic effects were assayed in vitro in the isolated right artium of the cat.; format: functional
# [5] = tested on: Canis familiaris; experiment: Inotropic effect in the dogs with pentobarbtial-induced heart failure, id administration; format: functional; conditions: Canis lupus familiaris
# [6] = tested on: Canis familiaris; experiment: as §1; format: functional; conditions: Canis lupus familiaris; remark: listed apart in the source
# [7] = organism: Felis catus; experiment: The inotropic activity was assayed in vitro in cat papillary muscle; format: functional, Muscle tissue
# [8] = organism: Felis catus; experiment: In vitro chronotropic effect in right artium of cat (Inactive); format: functional; further: test concentration or dose not given here
# [9] = organism: Felis catus; experiment: In vitro inotropic effect in cat papillary muscle (Inactive); format: functional, Muscle tissue
# [10] = organism: Canis familiaris; experiment: (§2) ED20/ED50 ratio (BP/ inotropic) of the compound; format: functional, Canis lupus familiaris
# [11] = tested on: Canis familiaris; experiment: as §1; format: functional; conditions: Canis lupus familiaris; remark: listed apart in the source
# [12] = tested on: Canis familiaris; experiment: Inotropic effect in anesthetized dogs; format: functional; conditions: Canis lupus familiaris
# [13] = (§3) Inhibition of bovine cardiac phosphodiesterase fraction III; set-up: species or system Bos taurus
# [14] = organism: Felis catus; experiment: (§4) Ratio of Chronotropic (C) EC50 to inotropic (I) EC50; format: functional
# [15] = tested on: Canis familiaris; experiment: Inotropic effect in dogs with pentobarbital-induced heart failure, iv administration; format: functional; conditions: Canis lupus familiaris
# [16] = organism: Canis familiaris; experiment: as §2; format: functional, Canis lupus familiaris; remark: listed apart in the source
# [17] = (§5) Inhibition of crude bovine cardiac phosphodiesterase; format: functional, Bos taurus
# [18] = target: Phosphodiesterase 3B (Bos taurus, UniProt E1BN64); experiment: as §3
# [19] = tested on: Canis familiaris; experiment: Inotropic effect in dogs with pentobarbitial-induced heart failure, iv administration; format: functional; conditions: Canis lupus familiaris
# [20] = organism: Felis catus; experiment: In vitro inotropic effect in cat papillary muscle; format: functional
# [21] = as §5; set-up: species or system Bos taurus
# [22] = organism: Canis familiaris; experiment: as §4; format: functional, Canis lupus familiaris
# [23] = tested on: Canis familiaris; experiment: as §1; format: functional; conditions: Canis lupus familiaris; remark: listed apart in the source
# [24] = Felis catus, Muscle tissue, read-out: EC50
# Phosphodiesterase 3B, sequence (E1BN64 whole entry): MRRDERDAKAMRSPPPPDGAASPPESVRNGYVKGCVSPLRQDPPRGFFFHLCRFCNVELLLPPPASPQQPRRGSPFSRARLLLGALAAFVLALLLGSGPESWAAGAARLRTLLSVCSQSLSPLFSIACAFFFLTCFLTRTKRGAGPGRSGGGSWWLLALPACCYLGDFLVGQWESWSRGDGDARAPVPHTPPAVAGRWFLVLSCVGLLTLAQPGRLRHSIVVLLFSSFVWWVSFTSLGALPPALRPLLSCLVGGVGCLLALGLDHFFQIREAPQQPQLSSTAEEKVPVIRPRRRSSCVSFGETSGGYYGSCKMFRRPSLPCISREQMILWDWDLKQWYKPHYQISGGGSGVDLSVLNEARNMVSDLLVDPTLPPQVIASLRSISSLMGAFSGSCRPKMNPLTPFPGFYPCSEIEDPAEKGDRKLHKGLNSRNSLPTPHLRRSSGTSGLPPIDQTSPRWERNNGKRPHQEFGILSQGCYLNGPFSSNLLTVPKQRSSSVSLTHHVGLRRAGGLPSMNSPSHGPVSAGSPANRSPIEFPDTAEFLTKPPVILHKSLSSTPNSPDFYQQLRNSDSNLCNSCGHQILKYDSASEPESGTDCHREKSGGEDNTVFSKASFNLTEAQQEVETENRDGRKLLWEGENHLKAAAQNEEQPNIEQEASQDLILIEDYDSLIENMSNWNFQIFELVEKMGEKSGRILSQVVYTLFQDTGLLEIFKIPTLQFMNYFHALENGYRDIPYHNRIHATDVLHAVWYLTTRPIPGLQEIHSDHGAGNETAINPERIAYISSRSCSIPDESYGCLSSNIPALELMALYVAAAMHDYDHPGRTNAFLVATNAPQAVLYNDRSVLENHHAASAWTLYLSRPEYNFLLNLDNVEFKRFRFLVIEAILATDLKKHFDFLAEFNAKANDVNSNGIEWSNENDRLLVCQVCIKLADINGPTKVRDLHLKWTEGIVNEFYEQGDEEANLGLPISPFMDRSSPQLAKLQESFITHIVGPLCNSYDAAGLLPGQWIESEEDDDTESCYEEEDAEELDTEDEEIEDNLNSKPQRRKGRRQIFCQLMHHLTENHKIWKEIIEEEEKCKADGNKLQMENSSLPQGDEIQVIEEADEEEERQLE
EC50 [4],"EC50 [7, 24] [µM]",EC50 [8],EC50 [9],Compound,Ratio [1],other results
> 1000 uM l-1,6.1,–,–,Cc1nc(O)c(Br)c(NCCc2ccccc2)n1,>164,ED50 [2]: 0.029 mg/kg; ED20 [3]: < 0.01 mg/kg; ED50 [5]: > 1 mg/kg; ED20 [6]: > 1 mg/kg
200 uM l-1,90,–,–,CSc1ccc(C(=O)c2[nH]c(=O)[nH]c2C)cc1 [ENOXIMONE],2.2,–
–,5.5,–,–,CCc1nc(O)c(C#N)c(NCc2cccnc2)n1,16,"EC50 ([4]; Felis catus, read-out: EC50): 86 µM"
300 uM l-1,–,–,–,Cc1nc(O)c(C#N)c(NCCc2cccnc2)n1,1.3,EC50 [7]: 230 uM l-1
–,–,Not Active,Not Active,N#Cc1c(O)nc(-c2ccccc2)nc1NCc1cccnc1,–,–
~ 1000 uM l-1,72,–,–,N#Cc1c(O)nc(Cc2ccccc2)nc1NCc1cccnc1,14,–
180 uM l-1,43,–,–,Cc1nc(O)c(C#N)c(NCc2ccccn2)n1,4,–
–,14,–,–,Cc1nc(S)c(C#N)c(NCc2cccnc2)n1,6,"EC50 ([4]; Felis catus, read-out: EC50): 80 µM"
420 uM l-1,4.1,–,–,CCNc1nc(C)nc(O)c1Br,–,Ratio [10]: <0.3; ED20 [11]: 0.05 mg/kg; ED20 [3]: < 0.003 mg/kg; ED50 [12]: 0.01 mg/kg; IC50 [13]: 38 µM; Ratio [14]: 102; ED50 [5]: 0.03 mg/kg; EC50 ([7]; read-out: EC50): 2.8 µM; ED50 [15]: 0.01 mg/kg; Ratio [16]: 1.6
–,7,–,–,O=C1CCC(c2ccc(-n3ccnc3)cc2)=NN1 [IMAZODAN],–,IC50 [17]: 145 µM; IC50 [18]: 94 µM; ED50 [12]: 0.08 mg/kg
–,–,Not Active,Not Active,CC(=O)c1c(O)nc(C)nc1NCc1cccnc1,–,–
–,–,Not Active,Not Active,CCNc1nc(C)nc(O)c1C(C)=O,–,–
250 uM l-1,4.4,–,–,Cc1nc(O)c(C#N)c(NCc2ccncc2)n1,57,–
–,–,Not Active,Not Active,N#Cc1c(O)ncnc1NCc1cccnc1,–,–
–,1.9,–,–,CCCNc1nc(C)nc(O)c1C#N,9,"EC50 ([4]; Felis catus, read-out: EC50): 17 µM"
–,–,Not Active,Not Active,Cc1nc(Cl)c(C#N)c(NCc2cccnc2)n1,–,–
212 uM l-1,5.9,–,–,Cc1nc(=O)c(C#N)c(NCc2cccnc2)[nH]1 [PELRINONE],–,ED50 [19]: 0.033 mg/kg; ED20 [3]: 0.12 mg/kg; ED50 [12]: 0.03 mg/kg; IC50 [13]: 36 µM; EC50 [20]: 5 µM; IC50 [21]: 76 µM; Ratio [22]: 36; ED50 [5]: 0.2 mg/kg; ED20 [23]: > 3 mg/kg

EC50 [4],"EC50 [7, 24] [µM]",EC50 [8],EC50 [9],Compound,Ratio [1],other results
396 uM l-1,6.5,–,–,Cc1nc(O)c(C#N)c(NCCc2ccncc2)n1,61,–
> 1000 uM l-1,20,–,–,Cc1nc(O)c(C#N)c(NCCc2ccccc2)n1,>50,ED50 [19]: 0.07 mg/kg; ED20 [3]: 0.027 mg/kg; ED50 [5]: 0.22 mg/kg; ED20 [6]: 0.3 mg/kg
> 1000 uM l-1,5.3,–,–,Cc1nc(O)c([N+](=O)[O-])c(NCc2cccnc2)n1,>189,–
–,37,–,–,Cc1nc(O)c(C#N)c(NCCc2ccccn2)n1,2,"EC50 ([4]; Felis catus, read-out: EC50): 71 µM"
300 uM l-1,2.6,–,–,CCNc1nc(C)nc(O)c1C#N,115,Ratio [10]: 1.4 and 1.2; ED50 [19]: 0.027 mg/kg; ED20 [3]: 0.37 mg/kg; ED50 [5]: 0.06 mg/kg; ED20 [6]: 0.07 mg/kg
–,–,Not Active,Not Active,COc1nc(C)nc(NCc2cccnc2)c1C#N,–,–
> 1000 uM l-1,1.2,–,–,Cc1nc(O)c(Cl)c(NCCc2ccccc2)n1,>833,–
–,–,Not Active,Not Active,CNc1nc(C)nc(NCc2cccnc2)c1C#N,–,–
110 uM l-1,55,–,–,CC(C)(C)c1nc(O)c(C#N)c(NCc2cccnc2)n1,2,–
~ 300 uM l-1,7.7,–,–,Cc1[nH]c(=O)c(C#N)cc1-c1ccncc1 [MILRINONE],–,Ratio [10]: 3; ED20 [3]: 0.048 mg/kg; ED50 [12]: 0.02 mg/kg; IC50 [13]: 28 µM; Ratio [14]: ~39; EC50 [20]: 6.5 µM; IC50 [21]: 192 µM; ED50 [5]: 0.04 mg/kg; ED20 [6]: 0.1 mg/kg; ED50 [15]: 0.016 mg/kg; Ratio [16]: 2.5
–,–,Not Active,Not Active,CSc1nc(C)nc(NCc2cccnc2)c1C#N,–,–
–,–,Not Active,Not Active,Cc1nc(O)c(C(N)=O)c(NCc2cccnc2)n1,–,–
380 uM l-1,3.9,–,–,Cc1nc(O)c(Br)c(NCc2cccnc2)n1,–,ED20 [3]: 0.041 mg/kg; ED50 [12]: 0.012 mg/kg; IC50 [13]: 15 µM; Ratio [14]: 97; EC50 [20]: 2.5 µM; IC50 [21]: 35 µM; ED50 [5]: 0.022 mg/kg; ED20 [6]: 0.1 mg/kg; ED50 [15]: 0.018 mg/kg; Ratio [16]: 2.3 and 4.5
–,–,Not Active,Not Active,N#Cc1c(O)nc(O)nc1NCc1cccnc1,–,–
230 uM l-1,25,–,–,CCNc1nc(C)nc(O)c1[N+](=O)[O-],9,–
–,10,–,–,Cc1nc(O)c(C#N)c(NCc2ccco2)n1,8.8,"EC50 ([4]; Felis catus, read-out: EC50): 88 µM"
